Test results published in patent US8524718B2, “Heteroaromatic derivatives and their use as positive allosteric modulators of metabotropic glutamate receptors” (Addex Pharma S.A., priority 2007, dated 2013).

Legend:
[1] = target: T1, recombinant human mGluR4a receptors (Homo sapiens, UniProt Q14833); test: mGluR4 assay on HEK-expressing human mGluR4 (fluorescent cell based Ca2+ mobilization assay, FLIPR); settings: HEK-293 cells expressing hmGluR4; enhancement of EC25 glutamate response; mean of at least three independent experiments in duplicate; read-out: Ca^2+ Flux (mean EC50)
T1 construct: expressed in transfected cells
T1 sequence (Q14833 33-912): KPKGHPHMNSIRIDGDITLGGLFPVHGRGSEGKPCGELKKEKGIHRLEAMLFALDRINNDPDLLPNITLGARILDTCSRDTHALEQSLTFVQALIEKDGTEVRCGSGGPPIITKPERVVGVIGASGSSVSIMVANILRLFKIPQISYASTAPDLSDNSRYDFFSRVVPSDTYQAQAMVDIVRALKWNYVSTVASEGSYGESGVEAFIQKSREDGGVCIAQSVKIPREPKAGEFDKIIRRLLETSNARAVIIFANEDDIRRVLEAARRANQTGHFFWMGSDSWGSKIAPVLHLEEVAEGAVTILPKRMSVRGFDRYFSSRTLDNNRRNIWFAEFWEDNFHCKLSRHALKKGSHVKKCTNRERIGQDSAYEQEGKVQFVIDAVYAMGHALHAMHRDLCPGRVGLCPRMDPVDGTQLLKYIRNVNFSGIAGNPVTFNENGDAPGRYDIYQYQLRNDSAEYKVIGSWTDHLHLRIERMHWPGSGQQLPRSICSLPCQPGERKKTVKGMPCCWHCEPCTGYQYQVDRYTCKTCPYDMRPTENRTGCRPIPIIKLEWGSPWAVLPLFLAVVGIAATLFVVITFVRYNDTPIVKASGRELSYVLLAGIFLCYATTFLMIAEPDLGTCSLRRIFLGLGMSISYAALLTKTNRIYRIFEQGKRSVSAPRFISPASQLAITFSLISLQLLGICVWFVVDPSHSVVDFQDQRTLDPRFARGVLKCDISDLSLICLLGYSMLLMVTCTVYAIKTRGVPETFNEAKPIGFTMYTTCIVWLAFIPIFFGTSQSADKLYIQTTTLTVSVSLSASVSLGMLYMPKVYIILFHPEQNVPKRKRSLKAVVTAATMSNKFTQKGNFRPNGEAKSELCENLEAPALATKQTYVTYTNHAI
Source text: mGluR4 Assay on HEK-Expressing Human mGluR4 The compounds of the present invention are positive allosteric modulators of mGluR4 receptor. Their activity was examined on recombinant human mGluR4a receptors by detecting changes in intracellular Ca^2+ concentration, using the fluorescent Ca^2+-sensitive dye Fluo-4-(AM) and a Fluorometric Imaging Plate Reader (FLIPR, Molecular Devices, Sunnyvale, Calif.) The cDNA encoding the human metabotropic glutamate receptor (hmGluR4), (accession number NM_000841.1, NCBI Nucleotide database browser), was subcloned into an expression vector containing also the hygromycin resistance gene. In parallel, the cDNA encoding a G protein allowing redirection of the activation signal to intracellular calcium flux was subcloned into a different expression vector containing also the puromycin resistance gene. Transfection of both these vectors into HEK293 cells with PolyFect reagent (Qiagen) according to supplier's protocol, and hygromycin and puromycin treatment allowed selection of antibiotic resistant cells which had integrated stably one or more copies of the plasmids. Positive cellular clones expressing hmGluR4 were identified in a functional assay measuring changes in calcium fluxes in response to glutamate or selective known mGluR4 orthosteric agonists and antagonists. HEK-293 cells expressing hmGluR4 were maintained in media containing DMEM, dialyzed Fetal Calf Serum (10%), Glutamax™ (2 mM), Penicillin (100 units/mL), Streptomycin (100 μg/mL), Geneticin (100 μg/mL) and Hygromycin-B (40 μg/mL) and puromycin (1 μg/mL) at 37° C./5% CO2. Human mGluR4 HEK-293 cells were plated out 24 hours prior to FLIPR^384 assay in black-walled, clear-bottomed, poly-L-ornithine-coated 384-well plates at a density of 25,000 cells/well in a glutamine/glutamate free DMEM medium containing foetal bovine serum (10%), penicillin (100 units/mL) and streptomycin (100 μg/mL) at 37 C/5% CO2. On the day of the assay, the medium was aspirated and the cells were loaded with a 3 μM solution of Fluo-4-AM (LuBioScience, Lucerne, Switzerland) in 0.03% pluronic acid. After 1 hour at 37 C/5% CO2, the non incorporated dye was removed by washing cell plate with the assay buffer and the cells were left in the dark at room temperature for six hours before testing. All assays were performed in a pH 7.4 buffered-solution containing 20 mM HEPES, 143 mM NaCl, 6 mM KCl, 1 mM MgSO4, 1 mM CaCl2, 0.125 mM sulfapyrazone, 0.1% glucose. After 10 s of basal fluorescence recording, various concentrations of the compounds of the invention were added to the cells. Changes in fluorescence levels were first monitored for 180 s in order to detect any agonist activity of the compounds. Then the cells were stimulated by an EC25 glutamate concentration for an additional 110 s in order to measure enhancing activities of the compounds of the invention. EC25 glutamate concentration is the concentration giving 25% of the maximal glutamate response. The concentration-response curves of representative compounds of the present invention were generated using the Prism GraphPad software (Graph Pad Inc, San Diego, USA). The curves were fitted to a four-parameter logistic equation: (Y=Bottom+(Top−Bottom)/(1+10^((Log EC50−X)*Hill Slope) allowing the determination of EC50 values. The Table 5 below represents the mean EC50 obtained from at least three independent experiments of selected molecules performed in duplicate.

## Cc1sc(Nc2cccc(Cl)n2)nc1-c1cn[nH]c1 [Compound 1-31, N-(6-Chloropyridin-2-yl)-5-methyl-4-(1H-pyrazol-4-yl)thiazol-2-amine]
other
  melting point: 290 °C (dec.)
[1]
  EC50: < 500 nM

## c1ccc(Nc2nc(-c3cn[nH]c3)ns2)cc1 [Compound 1-6, N-Phenyl-3-(1H-pyrazol-4-yl)-1,2,4-thiadiazol-5-amine]
other
  melting point: 192 °C
[1]
  EC50: 1000 to 10000 nM

## Cc1n[nH]cc1-c1nsc(Nc2ccccc2Cl)n1 [Compound 1-3, N-(2-Chlorophenyl)-3-(3-methyl-1H-pyrazol-4-yl)-1,2,4-thiadiazol-5-amine]
other
  melting point: 180 to 182 °C
[1]
  EC50: 1000 to 10000 nM

## CCCc1n[nH]cc1-c1nsc(Nc2ccccn2)n1 [Compound 1-9, 3-(3-Propyl-1H-pyrazol-4-yl)-N-(pyridin-2-yl)-1,2,4-thiadiazol-5-amine]
other
  melting point: 248 to 250 °C
[1]
  EC50: 1000 to 10000 nM

## c1ccc(Nc2nc(-c3c[nH]nc3C3CC3)cs2)nc1 [Compound 1-60, 4-(3-Cyclopropyl-1H-pyrazol-4-yl)-N-(pyridin-2-yl)thiazol-2-amine]
other
  melting point: 211 to 213 °C
[1]
  EC50: < 500 nM

## Cc1n[nH]cc1-c1nsc(Nc2ccccn2)n1 [Compound 1-5, 3-(3-Methyl-1H-pyrazol-4-yl)-N-(pyridin-2-yl)-1,2,4-thiadiazol-5-amine]
other
  melting point: > 280 °C
[1]
  EC50: 1000 to 10000 nM

## Cc1sc(Nc2ncccc2F)nc1-c1cn[nH]c1 [Compound 1-46, N-(3-Fluoropyridin-2-yl)-5-methyl-4-(1H-pyrazol-4-yl)thiazol-2-amine]
other
  melting point: 300 °C (dec.)
[1]
  EC50: < 500 nM

## Clc1cccc(Nc2nc(-c3cn[nH]c3)cs2)n1 [Compound 1-49, N-(6-Chloropyridin-2-yl)-4-(1H-pyrazol-4-yl)thiazol-2-amine]
other
  melting point: 295 °C (dec.)
[1]
  EC50: < 500 nM

## Cc1cccc(Nc2nc(-c3cn[nH]c3)c(C)s2)n1 [Compound 1-18, 5-Methyl-N-(6-methylpyridin-2-yl)-4-(1H-pyrazol-4-yl)thiazol-2-amine]
other
  melting point: 306 °C
[1]
  EC50: < 500 nM

## Clc1sc(Nc2ccccn2)nc1-c1cn[nH]c1 [Compound 1-32, 5-Chloro-4-(1H-pyrazol-4-yl)-N-(pyridin-2-yl)thiazol-2-amine]
other
  melting point: 282 to 285 °C
[1]
  EC50: < 500 nM

## Cc1cccc(Nc2nc(-c3cn[nH]c3)cs2)n1 [Compound 1-53, N-(6-Methylpyridin-2-yl)-4-(1H-pyrazol-4-yl)thiazol-2-amine]
other
  melting point: 259 to 260 °C
[1]
  EC50: < 500 nM

## FC(F)(F)c1sc(Nc2ccccn2)nc1-c1cn[nH]c1 [Compound 1-54, 4-(1H-Pyrazol-4-yl)-N-(pyridin-2-yl)-5-(trifluoromethyl)thiazol-2-amine]
other
  melting point: 250 °C (dec.)
[1]
  EC50: 500 to 1000 nM

## Cc1n[nH]cc1-c1csc(Nc2ccccc2)n1 [Compound 1-7, 4-(3-Methyl-1H-pyrazol-4-yl)-N-phenylthiazol-2-amine]
other
  melting point: 200 to 202 °C
[1]
  EC50: 1000 to 10000 nM

## Cc1n[nH]cc1-c1nsc(Nc2cccc(F)n2)n1 [Compound 1-43, N-(6-Fluoropyridin-2-yl)-3-(3-methyl-1H-pyrazol-4-yl)-1,2,4-thiadiazol-5-amine]
other
  melting point: > 300 °C
[1]
  EC50: < 500 nM

## Cc1sc(Nc2cccc(F)n2)nc1-c1cn[nH]c1 [Compound 1-33, N-(6-Fluoropyridin-2-yl)-5-methyl-4-(1H-pyrazol-4-yl)thiazol-2-amine]
other
  melting point: 290 °C (dec.)
[1]
  EC50: < 500 nM

## Cc1sc(Nc2ccccn2)nc1-c1cn[nH]c1 [Compound 1-16, 5-Methyl-4-(1H-pyrazol-4-yl)-N-(pyridin-2-yl)thiazol-2-amine]
other
  melting point: 291 to 294 °C
[1]
  EC50: < 500 nM

## CCc1n[nH]cc1-c1csc(Nc2ccccn2)n1 [Compound 1-61, 4-(3-Ethyl-1H-pyrazol-4-yl)-N-(pyridin-2-yl)thiazol-2-amine]
other
  melting point: 196 to 198 °C
[1]
  EC50: < 500 nM

## FC(F)(F)c1n[nH]cc1-c1csc(Nc2ccccn2)n1 [Compound 1-12, N-(Pyridin-2-yl)-4-(3-(trifluoromethyl)-1H-pyrazol-4-yl)thiazol-2-amine]
other
  melting point: 250 °C
[1]
  EC50: 500 to 1000 nM

## CCCc1n[nH]cc1-c1nsc(Nc2ccccc2)n1 [Compound 1-8, N-Phenyl-3-(3-propyl-1H-pyrazol-4-yl)-1,2,4-thiadiazol-5-amine]
other
  melting point: 170 to 172 °C
[1]
  EC50: 1000 to 10000 nM

## CC(C)c1n[nH]cc1-c1csc(Nc2ccccn2)n1 [Compound 1-13, 4-(3-Isopropyl-1H-pyrazol-4-yl)-N-(pyridin-2-yl)thiazol-2-amine]
other
  melting point: 195 °C
[1]
  EC50: 1000 to 10000 nM

## N#Cc1sc(Nc2ccccn2)nc1-c1cn[nH]c1 [Compound 1-47, 4-(1H-Pyrazol-4-yl)-2-(pyridin-2-ylamino)thiazol-5-carbonitrile]
other
  melting point: 250 °C (dec.)
[1]
  EC50: < 500 nM

## Cc1sc(Nc2ccccn2)nc1-c1cnn(C(N)=O)c1 [Compound 1-27, 4-(5-Methyl-2-(pyridin-2-ylamino)thiazol-4-yl)-1H-pyrazole-1-carboxamide]
other
  melting point: 294 to 296 °C
[1]
  EC50: < 500 nM

## CC(=O)n1cc(-c2nsc(Nc3ccccc3)n2)c(C)n1 [Compound 1-2, 1-(3-Methyl-4-(5-(phenylamino)-1,2,4-thiadiazol-3-yl)-1H-pyrazol-1-yl)ethanone]
other
  melting point: 204 to 208 °C
[1]
  EC50: 1000 to 10000 nM

## Cc1n[nH]cc1-c1csc(Nc2ccccn2)n1 [Compound 1-11, 4-(3-Methyl-1H-pyrazol-4-yl)-N-(pyridin-2-yl)thiazol-2-amine]
other
  melting point: 255 to 257 °C
[1]
  EC50: < 500 nM

## c1ccc(Nc2nc(-c3cn[nH]c3)cs2)nc1 [Compound 1-25, N-(4-(1H-pyrazol-4-yl)thiazol-2-yl)pyridin-2-amine]
other
  melting point: 261 to 262 °C
[1]
  EC50: < 500 nM
